Laboratory results taken from patent US20150023877A1, “METHODS OF PARKINSONS DISEASE DIAGNOSIS AND MONITORING TREATMENT” (The Board of Trustees of the Leland Stanford Junior …, priority 2013, published 2015).
Several values for one entry are separate records, joined by “and”; a condition that tells them apart may be missing. Equal values may be shown once. Read-outs that look alike come from different tables or passages of the source.

Legend:
[1] = test system: implantation site (striatum); conditions: cited from earlier work
[2] = test system: pRPE cells; test: Melanin quantification analysis in pRPE cells; format: cell-based, porcine; conditions: 2 mM L-tyrosine pre-treatment; from 14.34±0.48 untreated
Protocol: In vitro measurement of melanin content was performed for pRPE and ARPE-19 cells in parallel with the ^18F-P3BZA cell uptake assay according to methods reported previously with slight modifications^35. The cells were harvested after pretreatment with or without 2 mM L-tyrosine for 24 h and washed with PBS, then they were incubated overnight in 500 μL of 1 N NaOH at room temperature. The solution was pipetted repeatedly to homogenize the extracts. The concentration of total protein was determined using a microBCA protein assay kit (Pierce Biotechnology) and then the concentration of samples was adjusted to 0.4 μg/μL. Extracts (100 μL) were added into 96-well plates in triplicate. The relative melanin content of samples was determined by measuring their absorbance at 405 nm using a plate reader (TECAN, Research Triangle Park, N.C.). Results were expressed as absorbance of 405 nm per mg protein (A 405 nm/mg protein).

[3] = test system: ARPE-19 cells; test: In vitro cell uptake of ^18F-P3BZA in control ARPE-19 cells; format: cell-based, human
Protocol: (§1) pRPE (generation 3, 5×10^5) or control ARPE-19 cells were plated in a 12-well plate pretreated with or without L-tyrosine (2 mM) for 24 h. They were incubated with 74 kBq (2 μCi)/well of ^18F-P3BZA at 37° C. for 15, 30, 60, and 120 minute. The cells were washed three times with chilled PBS and lysed with 500 μL of 0.1 M NaOH. The cell lysates were then collected and the radioactivity of the lysates was measured with a γ counter (Perkin-Elmer, MA, USA). The cell uptake was expressed as the percentage of total applied radioactivity. All experiments were performed with triplicate samples. Similarly, uptake of ^18F-P3BZA at 30 minute incubation was determined in pRPE cells at different passages (pRPE-P3, pRPE-P5 and pRPE-P8) and control ARPE19 cells, with or without L-tyrosine pretreatment.

[4] = test system: pRPE-GMs; test: Longitudinal PET/CT after implantation of pRPE-GMs; format: in vivo, rat
Protocol: (§2) Small animal PET/CT imaging was performed on a Siemens Inveon small-animal multimodality PET/CT system (Preclinical Solutions; Siemens Healthcare Molecular Imaging, Knoxville, Tenn.). For each rat, ^18F-P3BZA (7.4 MBq, 200 μCi) was administrated through tail vein.
To evaluate the potential of ^18F-P3BZA for monitoring the survival and function of RPE cells implanted, longitudinal PET/CT scans were acquired at day 2, 9 and 16 after cell implantation of pRPE-GMs in the left and GMs as control in right striatum in normal rats (n=12). PET/CT imaging started at 1 h after tail vein injection of ^18F-P3BZA Immediately after PET/CT scan at each time point (day 2, 9 and 16), four rats were sacrificed and the brain slices were prepared for immunohistochemistry and Fontana-Masson staining.

[5] = test system: MCF-7-TYR; conditions: cited from earlier work
[6] = Dynamic PET imaging in normal rat brain; format: in vivo
Protocol: as §2
To assess the in vivo kinetics of ^18F-P3BZA in normal rat brain, dynamic PET imaging (10×1 minute, 10×2 minute, 2×5 minute, 3×10 minute; total of 25 frames) was initiated immediately after administration of the probe and terminated 70 minute later on normal rats (n=4).
CT scan (632 slices at 206 μm) was performed immediately after PET imaging for both photon attenuation correction and image co-registration with PET image data for anatomical information. PET Images were reconstructed with a 2-dimensional ordered-subsets expectation maximization algorithm (OSEM 2D). ROIs were drawn in bilateral striatum using the Inveon Research Workspace software. The average radioactivity concentration in the ROIs was obtained from the mean pixel values within the ROIs volume. […] The results were then divided by the injected dose to obtain an image ROI-derived % ID/g, and the TAC was then calculated and obtained.

[7] = test system: gelatin microcarrier-bound pRPE cells; test: Ex vivo autoradiography of rat brain sections; format: in vivo; conditions: after static PET/CT
From the text: The sacrificed rat brains were removed and embedded in optimum cutting temperature (O.C.T.) compound (Tissue-Tek, Sakura, USA). Subsequently, thick axial blocks (12 μm) were cut using a cryostat microtome HM500 (Microm, HM 500 M, Heidelberg, Germany). The sections were mounted on microscope slides (Fisherbrand Superfrost Plus microscope slides, Fisherbrand Superfrost Plus Microscope Slides, Vernon Hills, Ill., USA). The representative coronal sections through the striatum (including visible injection sites) were used for autoradiography immediately or preserved in −80° C. for other postmortem analysis.
After static PET/CT imaging, frozen brain sections were prepared immediately for autoradiography. The sections were air-dried for 10 minute, and then exposed to a radioactivity sensitive storage phosphor screen (Perkin-Elmer, USA) for 24 h at 4° C. The imaging plates were analyzed using a Typhoon 9410 variable mode imager (Amersham Biosciences, Salt Lake City, Utah, USA), and the image data were visualized and processed by Image J (image processing and analysis software in Java).

[8] = test system: pRPE cells; test: In vitro cell uptake of ^18F-P3BZA in pRPE cells; format: cell-based; conditions: for uptake of ^18F-P3BZA in pRPE cells: without L-tyrosine
Protocol: as §1

[9] = test system: gelatin microcarrier-bound pRPE cells (pRPE-GMs); test: Static PET/CT of intrastriatal implanted pRPE-GMs, 2 days after implantation; format: in vivo, rat
Protocol: (§3) Female Wistar rats (Charles Rivers Laboratory, Wilmington, Mass., USA) weighing 176-200 g were used in this study. All animal work was conducted in accordance with the Administrative Panel on Laboratory Animal Care at Stanford University. The implantation procedure was performed following the surgical procedures described in a previous report^36. Animals were anesthetized using isofluorane and were implanted at left striatum with RPE-GMs using the following (flat-skull) coordinates: anterior posterior (AP) −0.4; medial lateral (ML) ±3.5; dorsal ventral (DV) −5.0. The control GMs-alone were implanted on the contralateral side of the striatum and performed using the same procedure. Before the implantation procedure, solutions contained RPE cells (melanotic pRPE or amelanotic ARPE-19, 12,000˜15,000 cells in 10 μL) were drawn into a sterile 50 μL Hamilton syringe (Hamilton Company, Reno, Nev.).
(§4) Small animal PET/CT imaging was performed on a Siemens Inveon small-animal multimodality PET/CT system (Preclinical Solutions; Siemens Healthcare Molecular Imaging, Knoxville, Tenn.). For each rat, ^18F-P3BZA (7.4 MBq, 200 μCi) was administrated through tail vein. […]

[10] = test system: B16F10; conditions: cited from earlier work
[11] = test system: gelatin microcarrier-bound ARPE-19 cells (ARPE-19-GMs); test: Static PET/CT of intrastriatal implanted ARPE-19-GMs, 2 days after implantation; format: in vivo, rat
Protocol: as §3, §4

[12] = test system: MCF-7 cells; conditions: cited from earlier work
[13] = after implantation of the RPE cells
[14] = before implantation of the RPE cells

CCN1CCC[C@H]1CNC(=O)c1c(O)c(Cl)cc(Cl)c1O[11CH3] (racemic) [^11C-raclopride]
implantation site (striatum) to cortex uptake ratio [1, 13]: 2.44±0.67
implantation site (striatum) to cortex uptake ratio [1, 14]: 2.41±0.74

N[C@@H](Cc1ccc(O)cc1)C(=O)O [L-tyrosine]
melanin content in pRPE cells (P3) [2]: 21.34±1.73 A 405 per mg protein

CCN(CC)CCNC(=O)c1ccc([18F])cn1 [^18F-P3BZA, N-(2-(diethylamino)ethyl)-^18F-5-fluoropicolinamide]
uptake in control ARPE-19 cells at each time point ([3]; 15, 30, 60, 120 minutes): remained low
uptake of ^18F-P3BZA in control ARPE-19 cells ([3]; 30 minute incubation): 1.31%±0.15 % of applied activity
uptake in ARPE-19 cells before and after tyrosine treatment ([3]; with vs without L-tyrosine): no difference
uptake in pRPE-GMs ([4]; 2 days post-implantation): 3.39±0.18 % ID/g
uptake in pRPE-GMs ([4]; 9 days post-implantation): 2.49±0.41 % ID/g
uptake in pRPE-GMs ([4]; 16 days post-implantation): 1.20±0.13 % ID/g
cell uptake ([5]; 0.5 h incubation): 5.57±0.31%
cell uptake ([5]; 1 h incubation): 7.14±0.18%
uptake in rat brain ([6]; 2 min after injection (peak)): 7.61±0.30 % ID/g
uptake in rat brain ([6]; 28 min after injection): 3.54±0.21 % ID/g
uptake in rat brain ([6]; 60 min after injection): 1.04±0.37 % ID/g
blood-brain barrier passage ([6]; PET images, normal rat): could rapidly cross the blood-brain barrier
autoradiography signal of pRPE-GMs transplant site vs ARPE-19-GMs or GMs alone sites [7]: significantly higher
uptake of ^18F-P3BZA in L-tyrosine treated pRPE cells ([8]; 2 mM L-tyrosine pre-treatment, 30 minute incubation): 39.07±1.65%
uptake of ^18F-P3BZA in pRPE cells ([8]; 60 minutes incubation): 9.09%±0.31 % of applied activity
uptake of ^18F-P3BZA in pRPE cells ([8]; 120 minutes incubation): 8.61%±0.47 % of applied activity
fold uptake in passage 3 pRPE cells vs control amelanotic ARPE-19 cells ([8]; in vitro): 9 fold
increase in uptake in pRPE cells after tyrosine treatment vs nontreatment groups ([8]; multiple time points, FIG. 2A): three- to fourfold higher
uptake of ^18F-P3BZA in pRPE cells ([8]; pRPE passage 3, 30 minutes incubation): 10.72±0.38 % of applied activity and 10.72%±0.38 % of applied activity and 10.71%±0.38 % of applied activity
increase of uptake after tyrosine treatment ([8]; pRPE-P3): 48.8%
decreasing rate of cell uptake per passage ([8]; pRPE-P3, P5, P8): −1.45 % of applied activity per passage
increase of uptake after tyrosine treatment ([8]; pRPE-P5): 37.8%
increase of uptake after tyrosine treatment ([8]; pRPE-P8): 31.9%
uptake of ^18F-P3BZA in pRPE-P5 cells ([8]; passage 5, 30 minute incubation): 6.25%±0.59 % of applied activity
uptake of ^18F-P3BZA in pRPE-P8 cells ([8]; passage 8, 30 minute incubation): 3.29%±0.15 % of applied activity
pRPE-GMs to adjacent normal striatum uptake ratio [9]: 3.19±0.53
pRPE-GMs to control gelatin microcarriers uptake ratio [9]: 3.05±0.57
cell uptake ([10]; 0.5 h incubation): 6.85±0.08%
cell uptake ([10]; 1 h incubation): 8.55±0.24%
ARPE-19-GMs to gelatin microcarriers uptake ratio [11]: 1.21±0.36
cell uptake ([12]; 0.5 h incubation): 0.25±0.05%
cell uptake ([12]; 1 h incubation): 0.32±0.07%

N[C@@H](Cc1cc(O)c(O)cc1[18F])C(=O)O [^18F-fluoro-L-DOPA]
implantation site (striatum) to cortex uptake ratio [1, 13]: 1.48±0.07
implantation site (striatum) to cortex uptake ratio [1, 14]: 1.35±0.10
